These results are taken from patent publication US20080274213A1, “Drug for Ameliorating Male Climacteric Disorders” (WAKUNAGA PHARMACEUTICAL CO., LTD., priority 2004, published 2008).

This assay has as its system restraint stress-loaded ddY male mice. The experiment in a line: Test on inhibition of reduction in blood testosterone concentration (restraint stress-loaded mice). The settings on record: tested likewise, dose of the components not given. The assay is classed as in vivo. On the procedure: The Codonopsis lanceolata extract obtained in Example 1 was used to investigate inhibitory effect on reduction in blood testosterone concentration caused by aging and stress according to the following procedures: seven-month-old ddY male mice (10 mice per group) were orally given 1 g/kg of the test substance once a day over 2 weeks. On the last administration day, the mice were loaded with restraint stress after 1 hour of test substance administration. The restraint stress loading was performed by wrapping soft wire nets around the mouse bodies and allowing the mice to abstain from food and drink for 16 hours (17:00 to 9:00). Immediately after the termination of the loading, their blood testosterone concentrations were measured. A significant difference test used was the Student's t-test.

In the case of `CC1OC(OC2C(OC(=O)[C@]34CCC(C)(C)C[C@@]3(C)C3=CCC5[C@@]6(C)CC[C@H](OC7OC(C(=O)O)C(O)C(O)C7O)C(C)(C)C6CC[C@@]5(C)[C@]3(C)C[C@H]4O)OCC(O)C2O)C(O)C(O)C1OC1OCC(O)C(OC2OCC(O)C(O)C2O)C1O` (some centres unmarked) [lancemaside-A], the “inhibitory effect on reduction in blood testosterone concentration (isolated components)” value was “the inhibitory effect was also observed”.

As for tangshenoside I, the “inhibitory effect on reduction in blood testosterone concentration (isolated components)” value was “the inhibitory effect was also observed”.
